In paper PMC5175396, “Cytotoxicity of Plumbagin, Rapanone and 12 other naturally occurring Quinones from Kenyan Flora towards human carcinoma cells” (BMC Pharmacology & Toxicology, 2016):

Tests used:
[1] = tested on: MCF-7 breast adenocarcinoma cells; assay: Neutral red (NR) uptake cytotoxicity assay, MCF-7; assay type: cell-based, human; settings: for IC50: Homo sapiens, MCF7, 72 h, neutral red assay, 72 h incubation, read-out: IC50 MCF-7; for selectivity index MCF-7: IC50 in CRL2120 normal fibroblasts divided by IC50 in MCF-7
Excerpt: (§1) Six human cancer cell lines and one normal cell line were used in this study. They included A549 human non-small cell lung cancer (NSCLC) cell line, obtained from the Institute for Fermentation, Osaka (IFO, Japan) and provided by Prof. Dr. Tansu Koparal (Anadolu University, Eskisehir, Turkey), SPC212 human mesothelioma cell line obtained from American Type Culture Collection (ATCC) and provided by Dr. Asuman Demiroğlu Zergeroğlu (Gebze Technical University, Kocaeli, Turkey), DLD-1 colorectal adenocarcinoma cell lines obtained from ATCC (CCL-221), Caco2 colorectal adenocarcinoma cells (ATCC, HTB-37) obtained from the ŞAP Institute of Turkey (Ankara), HepG2 hepatocarcinoma cells (ATCC, HB-8065) and MCF-7 breast adenocarcinoma cells (ATCC, HTB-22) were provided by Prof. Dr. Tansu Koparal (Anadolu University, Eskisehir, Turkey). The normal CRL2120 human skin fibroblasts were obtained from ATCC [CCD1094Sk (ATCC, CRL-2120)]. The cells were maintained as a monolayer in DMEM medium (Sigma-aldrich, Munich, Germany) medium supplemented with 10% fetal calf serum and 1% penicillin (100 U/mL)-streptomycin (100 μg/mL) in a humidified 5% CO2 atmosphere at 37 °C.
(§2) The cytotoxicity of samples was performed by NR uptake assay as previously described. This method is based on the ability of viable cells to incorporate and bind the supravital dye NR in the lysosomes. The procedure is cheaper and more sensitive than other cytotoxicity tests. […] Briefly, cells were detached by treatment with 0.25% trypsin/EDTA (Invitrogen) and an aliquot of 1 × 10^4 cells was placed in each well of a 96-well cell culture plate […]. The cells were allowed to attach overnight and subsequently treated with different concentrations of the 14 compounds. Each of the studied samples was immediately added in varying concentrations in additional 100 μL of culture medium to obtain a total volume of […]/well. After 72 h incubation in humidified 5% CO2 atmosphere at 37 °C, the medium was removed and 200 μL fresh medium containing 50 μg/mL NR was added to each well and incubation continued for an additional 3 h at 37 °C in 5% CO2 atmosphere. The dye medium was then removed and each well was then washed rapidly with 200 μL phosphate buffer saline (PBS) followed by addition of 200 μL of acetic acid-water-ethanol in water (1:49:50). The plates were kept for 15 min at room temperature to extract the dye and then shaken for a few minutes on a GFL 3012 shaker (Gesellschaft für Labortechnik mbH, Burgwedel, Germany). Absorbance was measured on ELx 808 Ultra Microplate Reader (Biotek) equipped with a 540 nm filter. Each assay was done at least three times, with three replicates each. The viability was evaluated based on a comparison with untreated cells. The IC50 values represent the sample’s concentrations required to inhibit 50% of cell proliferation and were calculated from a calibration curve by linear regression using Microsoft Excel.

[2] = tested on: normal CRL2120 human skin fibroblasts; assay: Neutral red (NR) uptake cytotoxicity assay, normal CRL2120 fibroblasts; assay type: cell-based; settings: Skin fibroblast, 72 h incubation
Excerpt: as §1, §2

[3] = tested on: caspase 3/7 in MCF-7 cells; assay: Caspase-Glo 3/7 assay; assay type: cell-based, human; settings: IC50 and 2-fold IC50, 6 h (data not shown)
Experimental: Caspases activity in MCF-7 cells was detected using Caspase-Glo 3/7 and Caspase-Glo 9 Assay kits (Promega, Mannheim, Germany) as previously reported. […] Luminescence was measured using an BioTek Synergy™ HT multi-detection microplate reader. Caspase activity was expressed as percentage of the untreated control.

[4] = tested on: SPC212 human mesothelioma cell line; assay: Neutral red (NR) uptake cytotoxicity assay, SPC212; assay type: cell-based; settings: for selectivity index SPC212: IC50 in CRL2120 normal fibroblasts divided by IC50 in SPC212
Excerpt: as §1, §2

MCF-7 cells [5] = assay: Measurement of reactive oxygen species (ROS), DCFH-DA; assay type: cell-based, human; settings: at IC50, 24 h
Experimental: This is a cell-based assay for measuring hydroxyl, peroxyl, or other reactive oxygen species activity within a cell. The assay employs the cell-permeable fluorogenic probe 2′,7′-dichlorodihydrofluorescin diacetate (DCFH-DA). DCFH-DA is diffused into cells and is deacetylated by cellular esterases to non-fluorescent 2′,7′-dichlorodihydrofluorescin (DCFH), which is rapidly oxidized to highly fluorescent 2′,7′-dichlorofluorescein (DCF) by ROS. […] After addition of 100 μL 1× DCFH-DA/DMEM solution to cells and incubation at 37 °C for 30–60 min, the fluorescence was measured using SpectraMax® M5 Microplate Reader (Molecular Devices, Biberach, Germany) at 480/530 nm. All experiments were performed at least in triplicate.

MCF-7 cells [6] = assay: Mitochondrial membrane potential (MMP) analysis, JC-1 staining, flow cytometry; assay type: cell-based, human; settings: IC50 (C3), 72 h, control 4.3%
Experimental: The MMP was analyzed in MCF-7 cells by 5,5′,6,6′-tetrachloro-1,1′,3,3′-tetraethylbenzimidazolylcarbocyanine iodide) (JC-1; Biomol, Hamburg, Germany) staining as previously reported. […] Subsequently, cells were measured in a BD FACS Aria I Cell Sorter Flow Cytometer (Becton-Dickinson, Germany). The JC-1 signal was measured at an excitation of 561 nm (150 mW) and detected using a 586/15 nm band-pass filter. The signal was analyzed at 640 nm excitation (40 mW) and detected using a 730/45 nm bandpass filter. Cytographs were analyzed using BD FACSDiva™ Flow Cytometry Software Version 6.1.2 (Becton-Dickinson). All experiments were performed at least in triplicate.

| Structure (SMILES) | IC50 [1] [µM] | selectivity index MCF-7 [1] | IC50 [2] [µM] | activity of caspase 3/7 [3] | selectivity index SPC212 [4] | increase in ROS levels as compared with non-treated cells (MCF-7 cells [5]) | MMP, gate P2 (loss / depletion of MMP) (MCF-7 cells [6]) [%] | IC50 ([4]; Homo sapiens, 72 h, neutral red assay, 72 h incubation, read-out: IC50 SPC212) [µM] |
| --- | --- | --- | --- | --- | --- | --- | --- | --- |
| CCCCCCCCCCCCCC1=C(O)C(=O)C=C(O)C1=O [Compound 9, 2,5-dihydroxy-3-tridecyl-2,5-cyclohexadiene-1,4-dione] | 16.9 ± 4.65 | 5.62 | 95.2 ± 6.65 | no modification | 41.96 | less than 2 fold | 88.1 |  |
| CC1=CC(=O)c2c(O)cccc2C1=O [Compound 4, 5-hydroxy-2-methyl-1,4-naphthalenedione] | 0.06 ± 0.01 | 1127.67 | 67.7 ± 6.49 | no modification | 250.59 | more than 3 fold | 12.2 | 0.27 ± 0.01 |
